A short description of data set [1]: Pharmacokinetics in mouse plasma. Type of data set: in vivo. As to conditions: for Cmax: mouse plasma. As for the experimental part: Pharmacokinetic parameters for Compound 7. Compound 7 was quantified in mouse plasma using protein precipitation, internal standardization, and HPLC-MS/MS. Acetone was used to precipitate proteins and Compound 8 was the internal standard. Compound 7 and Compound 8 were separated using a C8 50×4.6 mm 5 um (Restek Ultra) HPLC column and a gradient mobile phase (acetonitrile:5 mM ammonium acetate). Compounds were detected using ESI in positive mode (Thermo Quantum Ultra; Thermo Fisher). The Q1/Q3 for Compound 7 and Compound 8 were 1087/300 and 957/231, respectively. The lower limit of quantification was 100 ng/mL using 20 μL of mouse plasma.
Pharmacokinetic parameters were estimated for Compound 7 after 5 mg/kg intravenous and 20 mg/kg intraperitoneal dosage, respectively. These parameters including area under the curve (AUC), area under the first moment curve (AUMC) and the elimination rate constant, kel, were estimated using noncompartmental methods with add-ins on Excel®. The maximum plasma concentration (Cmax) was obtained from the data. For the intravenous injection, the Cmax was estimated by extrapolating the data to zero time. The terminal half-life, t1/2, was estimated with 0.693/kel. The AUC from the last concentration, Clast, to infinity was estimated by Clast/kel. The systemic clearance (Cl or Cl/F) was calculated with dose/AUC0-∞ and the volume of distribution at steady state (Vdss or Vdss/F) was calculated using the Cl and the mean residence time (MRT; MRT=(Dose/AUC)×(AUMC/AUC)). The bioavailability (F) was estimated by comparing the Cl of intravenous and intraperitoneal injections.

In a further data set the target is SHP2 (Homo sapiens (Human), UniProt Q06124). The data set can be described thus: pNPP hydrolysis enzyme assay, SHP2. It counts as biochemical. The protocol: (§1) Enzyme kinetic assay. PTP activity was assayed using p-nitrophenyl phosphate (pNPP) as a substrate in 3,3-dimethylglutarate buffer (50 mM 3,3-dimethylglutarate, pH 7.0, 1 mM EDTA, 150 mM NaCl, 2 mM DTT, 0.1 mg/mL BSA) at 25° C. The assays were performed in 96-well plates. Normally, to determine the IC50 values, the reaction was initiated by the addition of enzyme (final concentration at 10 nM) to a reaction mixture (0.2 mL) containing 2 mM (Km for the substrate) pNPP with various concentrations of inhibitors. The reaction rate was measured using a SpectraMax Plus 384 Microplate Spectrophotometer (Molecular Devices). To determine the mode of inhibition, the reactions were initiated by the addition of PTP-MEG2 to the reaction mixtures (0.2 mL) containing various concentrations of pNPP with different concentrations of the inhibitor 7. Data were fitted using SigmaPlot Enzyme Kinetics Module (Systat Software, Inc.).

The test system of data set [2] is Foxo1 target genes in mouse primary hepatocytes. Put plainly: Foxo1 target gene expression in mouse primary hepatocytes (real-time PCR). Type of data set: cell-based. The conditions noted are these: with insulin, overnight, normalized with Ppia. As for the experimental part: FIGS. 4A-B depict the ability of PTP-MEG2 inhibitor Compound 7 to sensitize insulin signaling in primary hepatocytes. […] Mouse primary hepatocytes were cultured in 0.5% FBS DMEM medium overnight. Prior to insulin stimulation, the cells were pretreated with Compound 7 or 8 for 1 hour. Then the cells were stimulated with 5 nM insulin for 5 minutes. Insulin signaling was analyzed by Western Blots using phospho-specific antibodies. […] Mouse primary hepatocytes were cultured in DMEM medium plus 0.5% FBS for overnight in the presence or absence of insulin or Compound 7 or 8. Then the cells were harvested for mRNA isolation and gene expression analysis using real-time PCR. The mRNA levels of Foxo1 target genes were normalized with Ppia as an internal control. Data are presented as mean±SEM. *, P<0.05 for Compound 7 vs. DMSO; #, P<0.05 for INS+Compound 7 vs. INS alone.
RNA isolation and real-time PCR. RNA isolation was performed as described previously (Jänne, et al. Nat. Rev. Drug Discov. 2009, 8, 709-723). Real-time RT-PCR was performed in two steps: first, cDNA was synthesized using a cDNA synthesis kit (Applied Biosystems Inc.); second, cDNA was analyzed by real-time PCR using SYBR Green Master Mix (Promega). […]
(Quantitative PCR measures a nucleic acid by following its amplification.)

The subject of a further data set is C2C12 myotubes. Put plainly: Insulin signaling in C2C12 myotubes. Type of data set: cell-based. As to conditions: 1 hour pretreatment, 100 nM insulin 30 min. As for the experimental part:
Cell lysate (20 μg protein) was subjected to 10% SDS-PAGE and probed with phospho-Akt, phospho-IR (Y1162/1163) or Akt antibody, respectively. […] Cell lysate (20 μg protein) was subjected to 10% SDS-PAGE and probed with phospho-IR(Y1162/1163), phospho-Akt (pS473) or total Akt antibody, respectively. […] Cell lysate (20 μg protein) or insulin receptor immunoprecipitation beads were subjected to 10% SDS-PAGE and probed with phospho-Akt, Akt, insulin receptor beta or phospho-tyrosine antibody (4G10), respectively. The non-specific band from insulin receptor immunoprecipitates served as a loading control for insulin receptor and phospho-insulin receptor.
Western blot analysis. Cells were homogenized in the lysis buffer (50 mM Hepes, pH 7.5, 150 mM NaCl, 10% Glycerol, 1% Triton X-100, 1.5 mM MgCl2, 1 mM EGTA, 10 μM Sodium Pyrophosphate, 100 mM sodium fluoride and freshly added 100 μM sodium vanadate, 1 mM PMSF, 10 μg/ml Aprotinin, and 10 μg/mL Leupeptin). Protein extracts were resolved on an SDS-PAGE gel and transferred to nitrocellulose membrane. […] Protein signals were detected by incubation with HRP-conjugated secondary antibodies, followed by ECL detection reagent (Pierce). Western blots were scanned and quantified using the Quantity One software (Bio-Rad).

A further data set has as its target Laforin (Homo sapiens (Human), UniProt O95278). Put plainly: pNPP hydrolysis enzyme assay, Laforin. It counts as biochemical. As for the experimental part:
as §1

The target of another data set is PTP1B (Homo sapiens (Human), UniProt P18031). Put plainly: pNPP hydrolysis enzyme assay, PTP1B. Type of data set: biochemical. As for the experimental part: as §1
Setting [3] is: mouse, 20 mg/Kg intraperitoneal injection.
Where [4] appears, read: plasma, mouse, 5 mg/Kg intravenous injection.

Broadly, the Cmax is the peak of the concentration-time curve. The half-life is the time in which the quantity being followed falls by half. Read a low half-life as fast loss. The term clearance denotes the rate of elimination divided by the concentration. What is called IC50 is the concentration that inhibits the measured activity by half. Low readings indicate greater potency in that assay, high ones weaker potency in that assay.

PTP1B, sequence (P18031 whole entry, species assumed): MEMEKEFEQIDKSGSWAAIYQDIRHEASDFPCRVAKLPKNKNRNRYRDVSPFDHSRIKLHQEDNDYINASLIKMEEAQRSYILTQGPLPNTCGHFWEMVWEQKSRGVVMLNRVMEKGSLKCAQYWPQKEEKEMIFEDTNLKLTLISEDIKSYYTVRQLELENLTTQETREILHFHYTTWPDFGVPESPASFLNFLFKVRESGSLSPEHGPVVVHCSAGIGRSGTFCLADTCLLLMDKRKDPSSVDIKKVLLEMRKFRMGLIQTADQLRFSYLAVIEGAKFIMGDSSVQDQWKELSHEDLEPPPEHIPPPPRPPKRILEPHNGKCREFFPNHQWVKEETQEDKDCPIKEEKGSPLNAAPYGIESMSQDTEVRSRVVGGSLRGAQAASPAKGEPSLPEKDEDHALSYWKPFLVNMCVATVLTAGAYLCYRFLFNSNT
SHP2, sequence (Q06124 whole entry, species assumed): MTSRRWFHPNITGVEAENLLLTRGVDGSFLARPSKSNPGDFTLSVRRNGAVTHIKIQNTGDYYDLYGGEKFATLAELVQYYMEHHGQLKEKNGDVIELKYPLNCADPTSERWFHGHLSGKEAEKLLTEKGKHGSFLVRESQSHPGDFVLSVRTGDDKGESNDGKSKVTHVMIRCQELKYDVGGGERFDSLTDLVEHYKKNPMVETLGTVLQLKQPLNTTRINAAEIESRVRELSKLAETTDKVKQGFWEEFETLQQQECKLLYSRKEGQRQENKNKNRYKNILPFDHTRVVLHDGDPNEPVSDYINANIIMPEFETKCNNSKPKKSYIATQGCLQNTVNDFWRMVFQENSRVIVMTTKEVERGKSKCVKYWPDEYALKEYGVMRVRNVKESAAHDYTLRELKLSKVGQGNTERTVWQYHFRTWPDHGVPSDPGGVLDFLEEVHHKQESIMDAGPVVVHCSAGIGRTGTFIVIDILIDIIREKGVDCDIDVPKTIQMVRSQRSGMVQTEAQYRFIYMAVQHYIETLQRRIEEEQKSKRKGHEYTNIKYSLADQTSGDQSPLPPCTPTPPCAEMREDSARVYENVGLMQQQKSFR
Laforin, sequence (O95278 whole entry, species assumed): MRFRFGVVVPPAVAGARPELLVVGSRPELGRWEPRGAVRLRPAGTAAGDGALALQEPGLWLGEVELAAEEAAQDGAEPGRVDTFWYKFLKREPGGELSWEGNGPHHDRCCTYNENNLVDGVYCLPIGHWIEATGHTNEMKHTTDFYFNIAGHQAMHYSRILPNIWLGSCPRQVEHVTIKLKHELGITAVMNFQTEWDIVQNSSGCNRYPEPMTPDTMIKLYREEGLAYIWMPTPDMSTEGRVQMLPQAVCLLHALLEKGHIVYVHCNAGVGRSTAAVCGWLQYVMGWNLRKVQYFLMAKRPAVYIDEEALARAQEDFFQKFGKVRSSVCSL

On to `COc1cc(CC(=O)NCC(NC(=O)C(CCCNC(=O)c2cccc(I)c2)NC(=O)C(Cc2ccc(C(F)(F)P(=O)(O)O)cc2)NC(=O)c2ccc(C)c(Br)c2)C(N)=O)ccc1O` (stereo not drawn) [Compound 7], for which the Cmax in data set [1] (ip, 20 mg/Kg intraperitoneal injection) was 4.5 µM; in data set [1] (5 mg/Kg intravenous injection, extrapolated to zero time) it was 25.7 µM. In data set [1] (setting [3]), this molecule showed a Cl/F of 0.047 L/h. In data set [1] (setting [3]), this molecule displayed a t1/2 of 1.8 h. The half-life is 1.8 h in data set [1] (plasma, ip, mouse, 20 mg/Kg intraperitoneal injection) and 0.8 h in data set [1] (setting [4]). Besides, the Vd/F in data set [1] (plasma, ip, mouse, 20 mg/Kg intraperitoneal injection, read-out: Vdss/F) was determined as 0.08 L. The molecule also had a clearance in data set [1] (setting [4]) of 0.233 mL/min. Also, in data set [1] (plasma, mouse, 5 mg/Kg intravenous injection, read-out: Vdss), the Vd stood at 0.007 L. The half-inhibitory concentration (IC50) against SHP2 is above 10000 nM; against Laforin, above 10000 nM; against PTP1B (pNPP substrate), 0.86 µM. The “Pdk4, Igfbp1, and G6pc gene expression (Foxo1 transcriptional activity)” value in data set [2] is listed as “synergistic reduction”. The “insulin signaling (phospho-Akt, phospho-IR)” value with C2C12 myotubes is given as “augmented insulin signaling”. Further, at PTP1B (ratio of IC50 values), the “selectivity for PTP-MEG2 over PTP1B” value is “more than 10 fold”.
